Tested on: MV-4-11 cells
Experiment: Gene expression microarray analysis (Affymetrix PrimeView) and GSEA
Type: cell-based, human
Parameters: RFU PODN (11730768_x_at) / Fold change /veh PODN (11730768_x_at) / RFU LINC00158 (11744669_a_at) / Fold change /veh LINC00158 (11744669_a_at) / RFU DUSP10 (11751237_a_at) / Fold change /veh DUSP10 (11751237_a_at) / RFU ID3 (11757404_x_at) / Fold change /veh ID3 (11757404_x_at) / RFU PLEKHG5 (11737974_s_at) / Fold change /veh PLEKHG5 (11737974_s_at) / RFU LRRC4B (11730491_at) / Fold change /veh LRRC4B (11730491_at) / RFU GIMAP4 (11747438_a_at) / Fold change /veh GIMAP4 (11747438_a_at) / RFU KRT8 (11758183_x_at) / Fold change /veh KRT8 (11758183_x_at) / RFU CNN1 (11734310_a_at) / Fold change /veh CNN1 (11734310_a_at) / RFU VPS37D (11726825_at) / Fold change /veh VPS37D (11726825_at) / RFU C10orf10 (11716522_x_at) / Fold change /veh C10orf10 (11716522_x_at) / RFU KIR2DL2 /// KIR2DL4 /// KIR2DL5A /// KIR2DL5B /// KIR2DS1 /// KIR2DS2 /// KIR2DS3 /// KIR2DS4 /// KIR3DL3 /// KIR3DL3 /// KIR3DS1 (11738374_at) / Fold change /veh KIR2DL2 /// KIR2DL4 /// KIR2DL5A /// KIR2DL5B /// KIR2DS1 /// KIR2DS2 /// KIR2DS3 /// KIR2DS4 /// KIR3DL3 /// KIR3DL3 /// KIR3DS1 (11738374_at) / RFU C1QL1 (11718748_at) / Fold change /veh C1QL1 (11718748_at) / RFU TMPRSS4 (11747572_a_at) / Fold change /veh TMPRSS4 (11747572_a_at) / RFU HAMP (11756126_x_at) / Fold change /veh HAMP (11756126_x_at) / RFU RNFT2 (11725882_a_at) / Fold change /veh RNFT2 (11725882_a_at) / RFU NR4A2 (11747474_a_at) / Fold change /veh NR4A2 (11747474_a_at) / RFU ABCC12 (11746883_a_at) / Fold change /veh ABCC12 (11746883_a_at) / RFU TMEM136 (11760407_x_at) / Fold change /veh TMEM136 (11760407_x_at) / RFU CLDN22 /// WWC2 (11732394_at) / Fold change /veh CLDN22 /// WWC2 (11732394_at) / RFU HLA-DPB1 (11760878_x_at) / Fold change /veh HLA-DPB1 (11760878_x_at) / RFU SPINT1 (11716480_a_at) / Fold change /veh SPINT1 (11716480_a_at) / RFU GAP43 (11754022_s_at) / Fold change /veh GAP43 (11754022_s_at) / RFU A4GNT (11735810_at) / Fold change /veh A4GNT (11735810_at) / RFU PRB3 (11715151_x_at) / Fold change /veh PRB3 (11715151_x_at) / RFU TUBB4B (11761932_at) / Fold change /veh TUBB4B (11761932_at) / RFU CAPN14 (11732068_a_at) / Fold change /veh CAPN14 (11732068_a_at) / RFU TMCC2 (11721928_a_at) / Fold change /veh TMCC2 (11721928_a_at) / RFU IRGQ (11745062_a_at) / Fold change /veh IRGQ (11745062_a_at) / RFU FAM174B (11720279_a_at) / Fold change /veh FAM174B (11720279_a_at) / RFU TMPRSS4 (11748680_a_at) / Fold change /veh TMPRSS4 (11748680_a_at) / RFU FAM212B (11763350_a_at) / Fold change /veh FAM212B (11763350_a_at) / RFU PLEKHG5 (11743358_a_at) / Fold change /veh PLEKHG5 (11743358_a_at) / RFU ZSCAN30 (11745921_a_at) / Fold change /veh ZSCAN30 (11745921_a_at) / RFU CMKLR1 (11741424_a_at) / Fold change /veh CMKLR1 (11741424_a_at) / RFU LOC101060620 /// MAPK8IP1 (11723275_at) / Fold change /veh LOC101060620 /// MAPK8IP1 (11723275_at) / RFU SPTSSB (11747773_x_at) / Fold change /veh SPTSSB (11747773_x_at) / RFU PRSS12 (11739890_at) / Fold change /veh PRSS12 (11739890_at) / RFU BIN1 (11741810_x_at) / Fold change /veh BIN1 (11741810_x_at) / RFU WNT11 (11732464_a_at) / Fold change /veh WNT11 (11732464_a_at) / RFU C10orf10 (11716521_a_at) / Fold change /veh C10orf10 (11716521_a_at) / RFU C5orf56 (11738089_at) / Fold change /veh C5orf56 (11738089_at) / RFU CYB561 (11721691_x_at) / Fold change /veh CYB561 (11721691_x_at) / RFU ANKRD19P (11752326_a_at) / Fold change /veh ANKRD19P (11752326_a_at) / RFU OR2T12 /// OR2T33 /// OR2T8 (11738714_s_at) / Fold change /veh OR2T12 /// OR2T33 /// OR2T8 (11738714_s_at) / RFU VCAN (11748164_a_at) / Fold change /veh VCAN (11748164_a_at) / RFU JSRP1 (11732532_at) / Fold change /veh JSRP1 (11732532_at) / RFU KRTAP10-11 (11738290_x_at) / Fold change /veh KRTAP10-11 (11738290_x_at) / RFU MYO3A (11730013_a_at) / Fold change /veh MYO3A (11730013_a_at) / RFU EBF3 (11725865_a_at) / Fold change /veh EBF3 (11725865_a_at) / RFU CAMK2N1 (11719241_x_at) / Fold change /veh CAMK2N1 (11719241_x_at) / RFU C5orf56 (11738088_a_at) / Fold change /veh C5orf56 (11738088_a_at) / RFU OLFML3 (11715873_a_at) / Fold change /veh OLFML3 (11715873_a_at) / RFU LOC100653217 /// NTM (11731650_a_at) / Fold change /veh LOC100653217 /// NTM (11731650_a_at) / RFU MAPK11 (11762145_a_at) / Fold change /veh MAPK11 (11762145_a_at) / RFU FIZ1 (11724087_x_at) / Fold change /veh FIZ1 (11724087_x_at) / RFU OASL (11726364_x_at) / Fold change /veh OASL (11726364_x_at) / RFU SOX15 (11748057_x_at) / Fold change /veh SOX15 (11748057_x_at) / RFU CD79A (11719716_a_at) / Fold change /veh CD79A (11719716_a_at) / RFU HIST1H1D (11736915_at) / Fold change /veh HIST1H1D (11736915_at) / RFU CASKIN2 (11723855_a_at) / Fold change /veh CASKIN2 (11723855_a_at) / RFU LOC730098 (11760151_x_at) / Fold change /veh LOC730098 (11760151_x_at) / RFU OR4N2 (11742367_at) / Fold change /veh OR4N2 (11742367_at) / RFU PRRT2 (11749266_a_at) / Fold change /veh PRRT2 (11749266_a_at) / RFU SNX32 (11753110_a_at) / Fold change /veh SNX32 (11753110_a_at) / RFU CDHR5 (11726645_a_at) / Fold change /veh CDHR5 (11726645_a_at) / RFU RCAN1 (11760418_a_at) / Fold change /veh RCAN1 (11760418_a_at) / RFU FAM167A (11723789_a_at) / Fold change /veh FAM167A (11723789_a_at) / RFU FAM26E (11764081_at) / Fold change /veh FAM26E (11764081_at) / RFU ISYNA1 (11749810_s_at) / Fold change /veh ISYNA1 (11749810_s_at) / RFU ACY1 (11761880_at) / Fold change /veh ACY1 (11761880_at) / RFU 11764098_at / Fold change /veh 11764098_at / RFU SAMD14 (11745864_x_at) / Fold change /veh SAMD14 (11745864_x_at) / RFU NPB (11741838_a_at) / Fold change /veh NPB (11741838_a_at) / RFU TMPRSS6 (11731388_a_at) / Fold change /veh TMPRSS6 (11731388_a_at) / RFU KRTAP10-2 (11738614_at) / Fold change /veh KRTAP10-2 (11738614_at) / RFU ARHGAP8 /// PRR5-ARHGAP8 (11727945_x_at) / Fold change /veh ARHGAP8 /// PRR5-ARHGAP8 (11727945_x_at) / RFU KRTAP5-7 /// NADSYN1 (11734609_at) / Fold change /veh KRTAP5-7 /// NADSYN1 (11734609_at) / RFU RASL12 (11751679_a_at) / Fold change /veh RASL12 (11751679_a_at) / RFU CDKN2B (11736163_a_at) / Fold change /veh CDKN2B (11736163_a_at) / RFU PRF1 (11729649_at) / Fold change /veh PRF1 (11729649_at) / RFU, ZNF638 /// ZNF638-IT1 / Fold change vs veh, ZNF638 /// ZNF638-IT1 / RFU, PANK3 / Fold change vs veh, PANK3 / RFU, SH3YL1 / Fold change vs veh, SH3YL1 / RFU, ZEB2 / Fold change vs veh, ZEB2 / RFU, NRIP1 / Fold change vs veh, NRIP1 / RFU, PTTG1IP / Fold change vs veh, PTTG1IP / RFU, CAPN2 / Fold change vs veh, CAPN2 / RFU, MED14 / Fold change vs veh, MED14 / RFU, SNORA58 / Fold change vs veh, SNORA58 / RFU, C1orf63 / Fold change vs veh, C1orf63 / RFU, LRRFIP1 / Fold change vs veh, LRRFIP1 / RFU, NDUFAF7 / Fold change vs veh, NDUFAF7 / RFU, SLC12A2 / Fold change vs veh, SLC12A2 / RFU, IBTK / Fold change vs veh, IBTK / RFU, ESF1 / Fold change vs veh, ESF1 / Fold change vs veh, TMEM50B / RFU, TAOK1 / Fold change vs veh, TAOK1 / RFU, ACBD3 / Fold change vs veh, ACBD3 / RFU, TMA16 / Fold change vs veh, TMA16 / RFU, RWDD3 / Fold change vs veh, RWDD3 / RFU, BCAT1 / Fold change vs veh, BCAT1 / RFU, EDEM3 / Fold change vs veh, EDEM3 / RFU, TMEM33 / Fold change vs veh, TMEM33 / RFU, WDR75 / Fold change vs veh, WDR75 / RFU, AHCTF1 / Fold change vs veh, AHCTF1 / RFU, TFRC / Fold change vs veh, TFRC / RFU, ZDHHC17 / Fold change vs veh, ZDHHC17 / RFU, NOM1 / Fold change vs veh, NOM1 / RFU, ARL8B / Fold change vs veh, ARL8B / RFU, ZBTB11 / Fold change vs veh, ZBTB11 / RFU, TAMM41 / Fold change vs veh, TAMM41 / RFU, KIAA1704 /// LOC100996395 / Fold change vs veh, KIAA1704 /// LOC100996395 / RFU, ING1 / Fold change vs veh, ING1 / RFU, TRMT61B / Fold change vs veh, TRMT61B / RFU, FUBP3 / Fold change vs veh, FUBP3 / RFU, TP53 / Fold change vs veh, TP53 / RFU, TNKS2 / Fold change vs veh, TNKS2 / RFU, ZFP14 / Fold change vs veh, ZFP14 / RFU, ACTR2 / Fold change vs veh, ACTR2 / RFU, PPP3R1 / Fold change vs veh, PPP3R1 / RFU, PIK3R1 / Fold change vs veh, PIK3R1 / RFU, HNRNPA1 / Fold change vs veh, HNRNPA1 / RFU, RNF170 / Fold change vs veh, RNF170 / RFU, ZNF28 / Fold change vs veh, ZNF28 / RFU, RNGTT / Fold change vs veh, RNGTT / RFU, OGT / Fold change vs veh, OGT / RFU, BRD1 / Fold change vs veh, BRD1 / RFU, MARS / Fold change vs veh, MARS / RFU, ZNF655 / Fold change vs veh, ZNF655 / RFU, FAHD1 / Fold change vs veh, FAHD1 / RFU, BDP1 / Fold change vs veh, BDP1 / RFU, LRRCC1 / Fold change vs veh, LRRCC1 / RFU, ARID1A / Fold change vs veh, ARID1A / RFU, ZNF146 / Fold change vs veh, ZNF146 / RFU, ZNF330 / Fold change vs veh, ZNF330 / RFU, GPN3 / Fold change vs veh, GPN3 / RFU, C9orf123 / Fold change vs veh, C9orf123 / RFU, N4BP2L2 / Fold change vs veh, N4BP2L2 / RFU, ARFIP1 / Fold change vs veh, ARFIP1 / RFU, FAM179B / Fold change vs veh, FAM179B / RFU, BCL10 / Fold change vs veh, BCL10 / RFU, UHRF1BP1L / Fold change vs veh, UHRF1BP1L / RFU, BET1 / Fold change vs veh, BET1 / RFU, CNOT2 / Fold change vs veh, CNOT2 / RFU, ZNF268 / Fold change vs veh, ZNF268 / Fold change vs veh, ZNF507 / RFU, DGCR2 / Fold change vs veh, DGCR2 / RFU, WDSUB1 / Fold change vs veh, WDSUB1 / Fold change vs veh, HSP90B1 /// MIR3652 / RFU, ADSS / Fold change vs veh, ADSS / RFU, GK / Fold change vs veh, GK / RFU, ZNF148 / Fold change vs veh, ZNF148 / RFU, TAF9 / Fold change vs veh, TAF9 / RFU, SLC1A5 / Fold change vs veh, SLC1A5 / RFU, SLMO2 / Fold change vs veh, SLMO2 / RFU, ABCC4 / Fold change vs veh, ABCC4 / RFU, LOC101060439 /// RAP1B / Fold change vs veh, LOC101060439 /// RAP1B / RFU, RFX7 / Fold change vs veh, RFX7 / RFU, GTPBP10 / Fold change vs veh, GTPBP10 / RFU, CNEP1R1 / Fold change vs veh, CNEP1R1 / RFU, BIVM-ERCC5 /// ERCC5 / Fold change vs veh, BIVM-ERCC5 /// ERCC5 / RFU, ILF3 / Fold change vs veh, ILF3 / RFU 11762660_at / Fold change /veh 11762660_at / RFU VCAN (11757783_s_at) / Fold change /veh VCAN (11757783_s_at) / RFU DDX43 (11728927_at) / Fold change /veh DDX43 (11728927_at) / RFU KRT8 (11758188_x_at) / Fold change /veh KRT8 (11758188_x_at) / RFU NKD1 (11759106_at) / Fold change /veh NKD1 (11759106_at) / RFU SRD5A1 (11742802_a_at) / Fold change /veh SRD5A1 (11742802_a_at) / RFU TPSAB1 /// TPSB2 (11721975_s_at) / Fold change /veh TPSAB1 /// TPSB2 (11721975_s_at) / RFU GSTM3 (11746129_a_at) / Fold change /veh GSTM3 (11746129_a_at) / RFU IL23R (11737362_x_at) / Fold change /veh IL23R (11737362_x_at) / RFU TMEM51 (11727254_a_at) / Fold change /veh TMEM51 (11727254_a_at) / RFU PIWIL2 (11732686_x_at) / Fold change /veh PIWIL2 (11732686_x_at) / RFU ORM1 (11744905_x_at) / Fold change /veh ORM1 (11744905_x_at) / RFU CCDC152 (11743942_at) / Fold change /veh CCDC152 (11743942_at) / RFU ECM1 (11717891_a_at) / Fold change /veh ECM1 (11717891_a_at) / RFU IL23R (11748794_a_at) / Fold change /veh IL23R (11748794_a_at) / RFU TNFAIP8L3 (11732012_x_at) / Fold change /veh TNFAIP8L3 (11732012_x_at) / RFU MBOAT4 (11741988_at) / Fold change /veh MBOAT4 (11741988_at) / RFU 11764193_at / Fold change /veh 11764193_at / RFU TMEM53 (11763286_at) / Fold change /veh TMEM53 (11763286_at) / RFU MAGEB2 (11727129_at) / Fold change /veh MAGEB2 (11727129_at) / RFU TMEM200A (11744735_a_at) / Fold change /veh TMEM200A (11744735_a_at) / RFU CCDC152 (11751479_a_at) / Fold change /veh CCDC152 (11751479_a_at) / RFU FAM211A (11726209_a_at) / Fold change /veh FAM211A (11726209_a_at) / RFU RGS16 (11746705_a_at) / Fold change /veh RGS16 (11746705_a_at) / RFU VCAN (11755009_s_at) / Fold change /veh VCAN (11755009_s_at) / RFU RHOB (11743442_s_at) / Fold change /veh RHOB (11743442_s_at) / RFU RGS16 (11720943_a_at) / Fold change /veh RGS16 (11720943_a_at) / RFU RGS16 (11720944_at) / Fold change /veh RGS16 (11720944_at) / RFU, VPS4B / Fold change vs veh, VPS4B / RFU, CREB1 / Fold change vs veh, CREB1 / RFU, DNAJC13 / Fold change vs veh, DNAJC13 / RFU, GNAQ / Fold change vs veh, GNAQ / RFU, CDK5R1 / Fold change vs veh, CDK5R1 / RFU, ZRANB3 / Fold change vs veh, ZRANB3 / RFU, CUL4A / Fold change vs veh, CUL4A / RFU, CCNY / Fold change vs veh, CCNY / RFU, UFL1 / Fold change vs veh, UFL1 / RFU, COG3 / Fold change vs veh, COG3 / RFU, DIAPH2 / Fold change vs veh, DIAPH2 / RFU, SKA2 / Fold change vs veh, SKA2 / RFU, AFF3 / Fold change vs veh, AFF3 / RFU, LMF1 / Fold change vs veh, LMF1 / RFU, IPO11 / Fold change vs veh, IPO11 / RFU, DFFB / Fold change vs veh, DFFB / RFU, FOXP1 / Fold change vs veh, FOXP1 / RFU, CARD8 / Fold change vs veh, CARD8 / RFU, STRN3 / Fold change vs veh, STRN3 / RFU, ADK / Fold change vs veh, ADK / RFU, RASSF2 / Fold change vs veh, RASSF2 / RFU, WIPF1 / Fold change vs veh, WIPF1 / RFU, LARP1B / Fold change vs veh, LARP1B / RFU, RASA1 / Fold change vs veh, RASA1 / RFU, RB1 / Fold change vs veh, RB1 / RFU, PPFIA1 / Fold change vs veh, PPFIA1 / RFU, MAT2A / Fold change vs veh, MAT2A / RFU, CCT5 / Fold change vs veh, CCT5 / RFU, WDR92 / Fold change vs veh, WDR92 / RFU, CUX1 / Fold change vs veh, CUX1 / RFU, TTC7A / Fold change vs veh, TTC7A / RFU, TMEM135 / Fold change vs veh, TMEM135 / RFU, DEPTOR / Fold change vs veh, DEPTOR / RFU, CPM / Fold change vs veh, CPM / RFU, DNAJB6 / Fold change vs veh, DNAJB6 / RFU, CACNA2D3 / Fold change vs veh, CACNA2D3 / RFU, DTX4 / Fold change vs veh, DTX4 / RFU, TFCP2 / Fold change vs veh, TFCP2 / RFU, GMCL1 /// GMCL1P1 / Fold change vs veh, GMCL1 /// GMCL1P1 / RFU, AEBP2 / Fold change vs veh, AEBP2 / RFU, SNHG1 /// SNORD22 /// SNORD25 /// SNORD26 /// SNORD27 /// SNORD28 /// SNORD29 /// SNORD31 / Fold change vs veh, SNHG1 /// SNORD22 /// SNORD25 /// SNORD26 /// SNORD27 /// SNORD28 /// SNORD29 /// SNORD31 / Fold change (Aza/veh), C12orf56 (ProbeSet 11735607_a_at) / Fold change (ACY-1035/veh), C12orf56 (ProbeSet 11735607_a_at) / Fold change (Aza/veh), FGFR1OP (ProbeSet 11751329_s_at) / Fold change (ACY-1035/veh), FGFR1OP (ProbeSet 11751329_s_at) / Fold change (Aza/veh), VPS36 (ProbeSet 11739960_a_at) / Fold change (ACY-1035/veh), VPS36 (ProbeSet 11739960_a_at) / RFU SYPL1 (11715823_x_at) / Fold change /veh SYPL1 (11715823_x_at) / RFU IGFBP7 (11715501_s_at) / Fold change /veh IGFBP7 (11715501_s_at) / RFU REEP3 (11722064_at) / Fold change /veh REEP3 (11722064_at) / RFU IGLL1 (11728026_x_at) / Fold change /veh IGLL1 (11728026_x_at): dose or concentration left out as unconfirmed
Conditions: ProbeSet 11725901_x_at; LIST B

Nc1ncn([C@@H]2O[C@H](CO)[C@@H](O)[C@H]2O)c(=O)n1 [azacitidine]
RFU, RWDD3: 20.92 RFU
